Values joined by “and” are separate entries in the source; they are usually repeats but may differ in a detail not shown here. Equal values may be shown once. Inconclusive results and toxic doses are left out.
Tested on: BDF1 mice, L1210 Methyl-GAG-resistant leukemia, survival T/C
Assay: NCI In Vivo Anticancer Drug Screen. Data for tumor model L1210 Leukemia resistant to Methyl-GAG; NSC 32946 (subcutaneous) in B6D2F1 (BDF1) mice
Conditions: endpoint: mean survival time, higher = longer survival
Protocol: The antitumor activity of compounds was measured in mice bearing transplantable tumors. Survival or tumor size were measured and the results are expressed as the measurement made in the treated group (T) divided by the measurement made in the vehicle treated control group (C). The tumor model used in this assay is L1210 Leukemia resistant to Methyl-GAG; NSC 32946 (subcutaneous) in B6D2F1 (BDF1) mice

[1] = dose: 16.0 mg/kg/injection, schedule: Q01DX Z (sc), vehicle: steriod suspending solution
[2] = dose: 32.0 mg/kg/injection, schedule: Q01DX Z (sc), vehicle: steriod suspending solution
[3] = dose: 2.5 mg/kg/injection, schedule: Q01DX Z (ip), vehicle: carboxymethylcellulose (CMC)
[4] = dose: 4.0 mg/kg/injection, schedule: Q01DX Z (ip), vehicle: carboxymethylcellulose (CMC)
[5] = dose: 8.0 mg/kg/injection, schedule: Q01DX Z (ip), vehicle: carboxymethylcellulose (CMC)
[6] = dose: 31.0 mg/kg/injection, schedule: Q01DX Z (ip), vehicle: carboxymethylcellulose (CMC)
[7] = dose: 5.0 mg/kg/injection, schedule: Q01DX Z (ip), vehicle: carboxymethylcellulose (CMC)
[8] = dose: 10.0 mg/kg/injection, schedule: Q01DX Z (ip), vehicle: carboxymethylcellulose (CMC)
[9] = dose: 12.5 mg/kg/injection, schedule: Q01DX Z (ip), vehicle: carboxymethylcellulose (CMC)
[10] = dose: 25.0 mg/kg/injection, schedule: Q01DX Z (ip), vehicle: carboxymethylcellulose (CMC)
[11] = dose: 50.0 mg/kg/injection, schedule: Q01DX Z (ip), vehicle: carboxymethylcellulose (CMC)
[12] = dose: 0.5 mg/kg/injection, schedule: Q01DX Z (ip), vehicle: saline
[13] = dose: 1.0 mg/kg/injection, schedule: Q01DX Z (ip), vehicle: saline

Nc1nc2n[nH]nc2c(=O)[nH]1
T/C (dose: 25.0 mg/kg/injection, schedule: Q01DX Z (ip), vehicle: other): 159 % of control | T/C (dose: 100.0 mg/kg/injection, schedule: Q01DX Z (ip), vehicle: other): 162 % of control and 168 % of control | T/C (dose: 400.0 mg/kg/injection, schedule: Q01DX Z (ip), vehicle: other): 177 % of control

CC[C@H](c1ccc(O)cc1)[C@@H](CC)c1ccc(O)cc1
T/C (dose: 4.0 mg/kg/injection, schedule: Q01DX Z (sc), vehicle: steriod suspending solution): 100 % of control | T/C (dose: 8.0 mg/kg/injection, schedule: Q01DX Z (sc), vehicle: steriod suspending solution): 100 % of control | T/C [1]: 95 % of control | T/C [2]: 105 % of control

Nc1nc(=S)c2ncn(C3OC(CO)C(O)C3O)c2[nH]1 (stereo unspecified)
T/C (dose: 0.16 mg/kg/injection, schedule: Q01DX Z (ip), vehicle: carboxymethylcellulose (CMC)): 92 % of control | T/C (dose: 0.31 mg/kg/injection, schedule: Q01DX Z (ip), vehicle: carboxymethylcellulose (CMC)): 91 % of control | T/C (dose: 0.62 mg/kg/injection, schedule: Q01DX Z (ip), vehicle: carboxymethylcellulose (CMC)): 102 % of control | T/C (dose: 1.25 mg/kg/injection, schedule: Q01DX Z (ip), vehicle: carboxymethylcellulose (CMC)): 111 % of control | T/C [3]: 152 % of control

OCC1OC(n2cnc3c(=S)nc[nH]c32)C(O)C1O (stereo unspecified)
T/C (dose: 2.0 mg/kg/injection, schedule: Q01DX Z (ip), vehicle: carboxymethylcellulose (CMC)): 100 % of control | T/C [4]: 100 % of control | T/C [5]: 107 % of control | T/C (dose: 16.0 mg/kg/injection, schedule: Q01DX Z (ip), vehicle: carboxymethylcellulose (CMC)): 115 % of control | T/C [6]: 120 % of control | T/C (dose: 500.0 mg/kg/injection, schedule: Q01DX Z (ip), vehicle: carboxymethylcellulose (CMC)): 93 % of control

N#[N+]c1cnc([O-])[nH]c1=O
T/C [7]: 88 % of control | T/C [8]: 88 % of control

CCCCNc1ncnc2c1cnn2C
T/C [4]: 106 % of control | T/C [5]: 106 % of control | T/C (dose: 8.8 mg/kg/injection, schedule: Q01DX Z (ip), vehicle: carboxymethylcellulose (CMC)): 102 % of control | T/C (dose: 15.6 mg/kg/injection, schedule: Q01DX Z (ip), vehicle: carboxymethylcellulose (CMC)): 110 % of control | T/C [6]: 112 % of control | T/C (dose: 31.2 mg/kg/injection, schedule: Q01DX Z (ip), vehicle: carboxymethylcellulose (CMC)): 107 % of control | T/C (dose: 62.5 mg/kg/injection, schedule: Q01DX Z (ip), vehicle: carboxymethylcellulose (CMC)): 100 % of control | T/C (dose: 125.0 mg/kg/injection, schedule: Q01DX Z (ip), vehicle: carboxymethylcellulose (CMC)): 98 % of control

O=C(Nc1ccc(C2=NCCN2)cc1)c1cccc(C(=O)Nc2ccc(C3=NCCN3)cc2)c1
T/C (dose: 1.2 mg/kg/injection, schedule: Q01DX Z (ip), vehicle: water): 102 % of control | T/C (dose: 2.4 mg/kg/injection, schedule: Q01DX Z (ip), vehicle: water): 108 % of control | T/C (dose: 9.4 mg/kg/injection, schedule: Q01DX Z (ip), vehicle: water): 211 % of control | T/C (dose: 12.5 mg/kg/injection, schedule: Q01DX Z (ip), vehicle: water): 223 % of control | T/C (dose: 18.8 mg/kg/injection, schedule: Q01DX Z (ip), vehicle: water): 226 % of control | T/C (dose: 25.0 mg/kg/injection, schedule: Q01DX Z (ip), vehicle: water): 236 % of control | T/C (dose: 37.5 mg/kg/injection, schedule: Q01DX Z (ip), vehicle: carboxymethylcellulose (CMC)): 202 % of control | T/C (dose: 37.5 mg/kg/injection, schedule: Q01DX Z (ip), vehicle: water): 287 % of control | T/C (dose: 50.0 mg/kg/injection, schedule: Q01DX Z (ip), vehicle: water): 113 % of control | T/C (dose: 75.0 mg/kg/injection, schedule: Q01DX Z (ip), vehicle: carboxymethylcellulose (CMC)): 224 % of control | T/C (dose: 150.0 mg/kg/injection, schedule: Q01DX Z (ip), vehicle: carboxymethylcellulose (CMC)): 247 % of control

Oc1cc(CN(CCCl)CCCl)c(O)cc1CN(CCCl)CCCl
T/C (dose: 1.88 mg/kg/injection, schedule: Q01DX Z (sc), vehicle: steriod suspending solution): 103 % of control | T/C (dose: 3.75 mg/kg/injection, schedule: Q01DX Z (sc), vehicle: steriod suspending solution): 111 % of control | T/C (dose: 7.5 mg/kg/injection, schedule: Q01DX Z (sc), vehicle: steriod suspending solution): 115 % of control

N#CCSc1ncnc2nc[nH]c12
T/C [9]: 101 % of control | T/C [10]: 110 % of control | T/C [11]: 123 % of control

CC[C@@H](c1ccc(O)cc1)[C@@H](CC)c1ccc(O)cc1
T/C [1]: 96 % of control | T/C [2]: 96 % of control | T/C (dose: 62.5 mg/kg/injection, schedule: Q01DX Z (sc), vehicle: steriod suspending solution): 100 % of control | T/C (dose: 125.0 mg/kg/injection, schedule: Q01DX Z (sc), vehicle: steriod suspending solution): 100 % of control | T/C (dose: 250.0 mg/kg/injection, schedule: Q01DX Z (sc), vehicle: steriod suspending solution): 108 % of control | T/C (dose: 500.0 mg/kg/injection, schedule: Q01DX Z (sc), vehicle: steriod suspending solution): 98 % of control and 101 % of control | T/C (dose: 1000.0 mg/kg/injection, schedule: Q01DX Z (sc), vehicle: steriod suspending solution): 95 % of control

Cn1cnc([N+](=O)[O-])c1Sc1ncnc2nc[nH]c12
T/C [9]: 105 % of control | T/C [10]: 103 % of control | T/C [11]: 124 % of control | T/C (dose: 100.0 mg/kg/injection, schedule: Q01DX Z (ip), vehicle: carboxymethylcellulose (CMC)): 88 % of control

O=C(Nc1ccc(NC2=NCCN2)cc1)c1ccc(C(=O)Nc2ccc(NC3=NCCN3)cc2)cc1
T/C [12]: 101 % of control | T/C [13]: 100 % of control | T/C (dose: 2.0 mg/kg/injection, schedule: Q01DX Z (ip), vehicle: saline): 100 % of control | T/C (dose: 8.0 mg/kg/injection, schedule: Q01DX Z (ip), vehicle: saline): 196 % of control | T/C (dose: 32.0 mg/kg/injection, schedule: Q01DX Z (ip), vehicle: saline): 113 % of control | T/C (dose: 64.0 mg/kg/injection, schedule: Q01DX Z (ip), vehicle: saline): 95 % of control

COC12C(COC(N)=O)C3=C(C(=O)C(C)=C(N)C3=O)N1CC1C2N1C (stereo unspecified)
T/C [3]: 96 % of control | T/C [7]: 103 % of control | T/C [8]: 122 % of control | T/C (dose: 20.0 mg/kg/injection, schedule: Q01DX Z (ip), vehicle: carboxymethylcellulose (CMC)): 88 % of control

[I][Hg][CH2]C1COC([CH2][Hg][I])CO1 (stereo unspecified)
T/C (dose: 1.9 mg/kg/injection, schedule: Q01DX Z (ip), vehicle: carboxymethylcellulose (CMC)): 102 % of control | T/C (dose: 3.75 mg/kg/injection, schedule: Q01DX Z (ip), vehicle: carboxymethylcellulose (CMC)): 95 % of control | T/C (dose: 7.5 mg/kg/injection, schedule: Q01DX Z (ip), vehicle: carboxymethylcellulose (CMC)): 102 % of control | T/C (dose: 15.0 mg/kg/injection, schedule: Q01DX Z (ip), vehicle: carboxymethylcellulose (CMC)): 113 % of control | T/C (dose: 30.0 mg/kg/injection, schedule: Q01DX Z (ip), vehicle: carboxymethylcellulose (CMC)): 150 % of control | T/C (dose: 60.0 mg/kg/injection, schedule: Q01DX Z (ip), vehicle: carboxymethylcellulose (CMC)): 107 % of control

CCN(CC)C(=S)S
T/C (dose: 125.0 mg/kg/injection, schedule: Q01DX Z (ip), vehicle: other): 96 % of control | T/C (dose: 250.0 mg/kg/injection, schedule: Q01DX Z (ip), vehicle: other): 92 % of control | T/C (dose: 500.0 mg/kg/injection, schedule: Q01DX Z (ip), vehicle: other): 96 % of control | T/C (dose: 1000.0 mg/kg/injection, schedule: Q01DX Z (ip), vehicle: other): 104 % of control and 114 % of control

CSCS(=O)C[C@H](CO)NC(=O)/C=C/c1c(C)[nH]c(=O)[nH]c1=O (stereo partly specified)
T/C (dose: 0.06 mg/kg/injection, schedule: Q01DX Z (ip), vehicle: saline): 97 % of control | T/C (dose: 0.12 mg/kg/injection, schedule: Q01DX Z (ip), vehicle: saline): 97 % of control | T/C (dose: 0.25 mg/kg/injection, schedule: Q01DX Z (ip), vehicle: saline): 106 % of control and 113 % of control | T/C [12]: 112 % of control | T/C [13]: 96 % of control
